{"source": "patent US20120165403A1", "about": "“METHODS OF INHIBITING THE ACTIVITY OF HSP90 AND/OR ARYL HYDROCARBON RECEPTOR” (UNIVERSITY OF ROCHESTER, priority 2004, published 2012)", "test_system": "hsp90", "test": "Affinity chromatography on EGCG-conjugated Sepharose, hsp90 inherent to RRL", "format": "binding, rabbit", "settings": "immunoblotting", "procedure": "EGCG was conjugated to cyanogen bromide (CNBr)-activated Sepharose (Sigma). EGCG (2.5 mg) was dissolved in 5004 coupling buffer (0.1M NaHCO3, 0.5M NaCl, pH 6.0). CNBr-activated Sepharose was swelled and washed in 1 mM HCl on a sintered glass filter followed by a wash with coupling buffer. CNBr-activated Sepharose beads were added to the EGCG in coupling buffer at a final concentration of 5 mg EGCG/ml of wet gel. The coupling solution containing EGCG and Sepharose was mixed end-over end at 4° C. overnight. Remaining active groups were blocked for 2 h at room temperature in Tris-HCl (0.1M, pH 8). EGCG-conjugated Sepharose was washed with three cycles of alternating pH wash buffers (Buffer 1: 0.1M acetate, 0.5M NaCl, pH4.0; Buffer 2: 0.1M Tris-HCl, 0.5M NaCl, pH 8.0). […]\nApproximately 25 μL of 1:4 diluted RRL containing ^35S-labeled in vitro transcribed protein was incubated with 40 μL of either unconjugated or EGCG-conjugated Sepharose beads in binding buffer (50% slurry). […] Protein was transferred to PVDF membrane (Millipore, Bedford, Mass.). ^35S-labeled AhR, ARNT, p23, XAP2, and hsp90 truncated and point mutants were detected by Phosphoimaging. Hsp90 inherent to RRL was detected by immunoblotting using an anti-hsp90 monoclonal antibody (Stressgen Victoria, BC Canada) followed by secondary antibody coupled to horseradish peroxidase (Jackson Immuno Research, West Grove, Pa.). […]", "data": [{"smiles": "O=C(O[C@@H]1Cc2c(O)cc(O)cc2O[C@@H]1c1cc(O)c(O)c(O)c1)c1cc(O)c(O)c(O)c1", "note": "[EGCG, epigallocatechin gallate]", "values": [{"measurement": "binding of hsp90 to EGCG-Sepharose", "value": "eluted from EGCG-Sepharose"}]}]}
